Test results as given in patent US10080756B2, “Combination methods for treating cancers” (Gilead Sciences, Inc., priority 2014, dated 2018).
Where two headings read alike, the source gives them in different places.

Experiments:
SU-DHL-6 = test: Cell Titer Glo viability assay, SU-DHL-6; type: cell-based; conditions: Homo sapiens; SU-DHL-6, DLBCL; single agent; 72 hours; read-out: Inhibition of Viability, EC50
Description: (§1) All procedures were performed at Gilead Sciences, Inc. in Branford, The compound of formula (I), cyclophosphamide, doxorubicin and vincristine sulfate were dissolved in DMSO to prepare stock solutions that were serially diluted three-fold in DMSO in a 96 well plate format at 1000× so the final starting assay concentrations tested would be 10 μM, 200 μM, 10 μM, and 1 μM respectively, for each compound. Compound plates were diluted 1:100 in RPMI without serum or additives creating a 10× stock. Cells were seeded into a 96-well plate at 10,000-20,000 cells per well in 100 μl of growth media appropriate to the cell line supplemented with 100 U/L penicillin-streptomycin. OCI-Ly3, OCI-Ly4 and OCI-Ly7 were grown in Iscove's+20% FBS, OCI-Ly19 was grown in alphaMEM+20% FBS, and all other cell lines were grown in RPMI+10% FBS. To each well, 11 μl of 10× compound was added in a final concentration of 0.1% DMSO and cells were incubated at 37° C. in 5% CO2 for 72 hours. Cell viability was assessed with Cell Titer Glo (Promega, Madison, Wis.) following the manufacturer's protocol on an Envision plate reader (Perkin Elmer, Waltham, Mass.). EC50 values were determined using a four parameter variable slope model with GraphPad Prism 6.0 software. All EC50 values represent mean values of from duplicate dose response curves.

SU-DHL-10 = test: Cell Titer Glo viability assay, SU-DHL-10; type: cell-based; conditions: Homo sapiens, SU-DHL10; SU-DHL-10, DLBCL; single agent; 72 hours; read-out: Inhibition of Viability, EC50
Description: as §1

OCI-LY3 = test: Cell Titer Glo viability assay, OCI-LY3; type: cell-based; conditions: Homo sapiens; OCI-LY3, DLBCL; single agent; 72 hours; read-out: Inhibition of Viability, EC50
Description: as §1

OCI-LY7 = test: Cell Titer Glo viability assay, OCI-LY7; type: cell-based; conditions: Homo sapiens; OCI-LY7, DLBCL; single agent; 72 hours; read-out: Inhibition of Viability, EC50
Description: as §1

OCI-LY19 = test: Cell Titer Glo viability assay, OCI-LY19; type: cell-based; conditions: Homo sapiens; OCI-LY19, DLBCL; single agent; 72 hours; read-out: Inhibition of Viability, EC50
Description: as §1

Pfeiffer = test: Cell Titer Glo viability assay, Pfeiffer; type: cell-based; conditions: Homo sapiens, DLBCL, single agent, 72 hours, read-out: Inhibition of Viability, EC50
Description: as §1

MM1.S = test: Cell Titer Glo viability assay, MM1.S; type: cell-based; conditions: Homo sapiens, MM, single agent, 72 hours, read-out: Inhibition of Viability, EC50
Description: as §1

RPMI-8266 = test: Cell Titer Glo viability assay, RPMI-8266; type: cell-based; conditions: RPMI8266; RPMI-8266, MM; single agent; 72 hours; read-out: Inhibition of Viability, EC50
Description: as §1

WSU-FSCCL = test: Cell Titer Glo viability assay, WSU-FSCCL; type: cell-based; conditions: WSU-FSCCL, FL; single agent; 72 hours; read-out: Inhibition of Viability, EC50
Description: as §1

[1] = system: 10 diffuse large B-cell lymphoma (DLBCL), 4 multiple myeloma (MM), 2 follicular lymphoma (FL), and 1 mantle cell lymphoma (MCL) cell lines; test: Cell Titer Glo viability assay, summary over all cell lines tested; type: cell-based; conditions: at concentrations <3000 nM
Description: as §1

[2] = Plasma levels in SU-DHL-10 xenograft study; type: in vivo, mouse
Description: On the 16th day post-tumor implantation, animals with established tumors (n=9 animals per group) were treated for 3 days by oral gavage with either vehicle or Entospletinib at 75 mg/kg or 25 mg/kg twice daily (BID). […] This dose level is designated 75/50 mg/kg.
Efficacy was evaluated by tumor volume measurements. Plasma levels of Entospletinib and vincristine were evaluated on the third day of dosing Entospletinib (Day 19) and the last day of dosing (Day 32). Tolerability was evaluated by daily observations, body weight (3 times per week) and circulating blood cell counts at the end of the study.

[3] = Cell Titer Glo viability assay, summary over all cell lines tested; type: cell-based; conditions: B-cell; range over the 17 cell lines of Table 1; read-out: EC50 values to inhibit cell viability, range over cell lines
Description: as §1

DHL-10 = test: Cell Titer Glo viability assay, DHL-10, alone or with compound of Formula I (Example 3)
Description: All procedures were performed at Gilead Sciences, Inc. in Branford, Conn. […] Compound plates were diluted 1:100 in RPMI without serum or additives but containing either 1% DMSO or 3 μM of the compound of Formula I creating a 10× stock. The DLBCL cell line, DHL-10 was plated at 10,000 cells per well in RPMI supplemented with 10% FBS and 100 U/L penicillin-streptomycin. To each well containing cells, 11 μl of 10× compound mixture in serum-free media was added in a final concentration of 0.2% DMSO and cells were incubated at 37° C. in 5% CO2 for 72 hours. Cell viability was assessed using Cell Titer Glo (CTG, Promega, Madison, Wis.) following the manufacturer's protocol on an Envision plate reader (Perkin Elmer, Waltham, Mass.). CTG signals were recorded for individual compound treatments and combinations. EC50 values were determined using a four parameter variable slope model with GraphPad Prism 6.0 software.

[4] = cited from earlier work

| Compound | EC50 (SU-DHL-6) [nM] | EC50 (SU-DHL-10) [nM] | EC50 (OCI-LY3) [nM] | EC50 (OCI-LY7) [nM] | EC50 (OCI-LY19) [nM] | EC50 (Pfeiffer) [nM] | EC50 (MM1.S) [nM] | EC50 (RPMI-8266) [nM] | EC50 (WSU-FSCCL) [nM] | inhibition of cell viability in any of the cell lines tested [1] | plasma concentrations on the third day of dosing ([2]; 75 mg/kg BID) | plasma concentrations at the end of study at Cmin (trough) ([2]; 25 and 50 mg/kg BID, respectively, compared with mouse whole blood values for inhibition of SYK) | EC50 [3] [nM] | EC50 (DHL-10; Homo sapiens, 72 h, read-out: Inhibition of cell viability EC50, No Compound of Formula I) [nM] | EC50 (DHL-10; read-out: Inhibition of cell viability EC50, +300 nM Compound of Formula I, DHL-10, in combination with 300 nM compound of Formula I, 72 hours) [nM] | solubility ([4]; 95% ethanol) | solubility ([4]; methanol) | solubility ([4]; water) |
| --- | --- | --- | --- | --- | --- | --- | --- | --- | --- | --- | --- | --- | --- | --- | --- | --- | --- | --- |
| c1cn2cc(-c3ccc4cn[nH]c4c3)nc(Nc3ccc(N4CCOCC4)cc3)c2n1 [Compound of Formula I, 6-(1H-indazol-6-yl)-N-(4-morpholinophenyl)imidazo[1,2-a]pyrazin-8-amine] | > 3000 | > 3000 | > 3000 | > 3000 | > 3000 | > 3000 | > 3000 | > 3000 | > 3000 | did not show inhibition cell viability | higher than planned plasma concentrations | exceed the in vitro pervanadate-stimulated mouse whole blood EC50 and EC50 values for inhibition of SYK |  |  |  |  |  |  |
| CC[C@]1(O)C[C@H]2CN(CCc3c([nH]c4ccccc34)[C@@](C(=O)OC)(c3cc4c(cc3OC)N(C=O)[C@H]3[C@@](O)(C(=O)OC)[C@H](OC(C)=O)[C@]5(CC)C=CCN6CC[C@]43[C@@H]65)C2)C1 [Vincristine, vincristine] | 12 | 45 | 12 | 4.6 | 1.2 | 4 | 59 | 67 | 58 |  |  |  | ≤ 103 | 14.1 | 3.5 | only slightly soluble | soluble | freely soluble |
